Paper PMC8318231, “Rate-of-Kill (RoK) assays to triage large compound sets for Chagas disease drug discovery: Application to GSK Chagas Box” (PLoS Neglected Tropical Diseases, 2021)

What was measured:
[1] = tested on: T. cruzi intracellular amastigotes in H9c2 cells; test: Rate-of-Kill (RoK) high-content imaging assay, amastigotes per cell (AM/CELL) and curve descriptors; assay type: cell-based, Trypanosoma cruzi; parameters: key to ME_24h / ME_48h / ME_72h: % reduction in parasite burden (cidal response); t50pct_MCC50 / t50pct_Cmax: unit not given here; conditions: for ME_24h: 24h; for ME_48h: 48h; for ME_72h: 72h; for t50%_Cmax / tlag_Cmax / t50pct_Cmax: at Cmax; for ME_24h (%): maximum effect at 24 h; for ME_24h (%) / ME_48h (%) / ME_72h (%): RoK assay; for ME_48h (%): maximum effect at 48 h; for ME_72h (%): maximum effect at 72 h; for ME 24h (maximum effect at 24 hours, intracellular amastigotes): maximum percentage of parasite burden reduction reached by any concentration
Method: For this high-content intracellular imaging assay, H9c2 cells were seeded in 225 cm^2 T- FLASK in DMEM with 10% FBS for 4 h to allow attachment. T. cruzi trypomastigotes, collected at days 5 to 8 after infection from LLC-MK2 parasite infected cultures, were allowed to swim out for 4 h at 37°C from a centrifuged pellet (1,600 x g / 10 min). Trypomastigotes were then collected and counted in a CASY Cell Counter using the 60 μm capillary. Trypomastigotes, in supplemented DMEM, were added to H9c2 cultures in a multiplicity of infection (MOI) of 8 and incubated for 18 h. Cells were washed once with PBS before incubation of the infected H9c2 monolayer with trypsin (Life-Technologies) to detach cells from the flask. Cells were counted in a CASY Cell Counter, using the 150 μm capillary, and their density set at 5 x 10^4 cells/mL in supplemented DMEM. Infected H9c2 were dispensed into 384-well plates at 50 μL per well using a Multidrop Combi dispenser. Control wells used to determine a 100% parasitic growth (full 6th column of each plate) were left untreated, whereas not infected cells were added in the control wells used as 0% parasite growth (or 100% parasite growth inhibition; full 18th column of each plate). The four plates corresponding to each RoK assay were predispensed for the same mother plate. […] Cultures were then fixed and stained with 50 μL per well of a PBS solution containing 4% formaldehyde and 2 μM DRAQ5 DNA dye (BioStatus, UK). Then plates were read in a PerkinElmer Opera Phenix using a 20x objective, 3 fields per well. DRAQ5 signal was detected using 640 nm excitation laser and a 690/50 nm emission detection filter. Automated image analysis was performed with a script developed on Acapella High Content Imaging and Analysis Software (PerkinElmer). Two outputs were provided for each sample well: (1) number of host cells nuclei to determine drug-related cytotoxicity (aka H9c2) and (2) number of amastigotes per cell as infection level measurement (aka AM/CELL). Each output is plotted as a time course for each compound at every concentration. This assay was adapted from Alonso-Padilla et al. and Peña et al..
To identify and classify the different compounds, the number of amastigotes per cell (AM/CELL) raw data obtained in rate of kill assay are normalised using the average of C1 (infected cells) at time 4 hours as 0% effect and the average of C2 (non-infected cells) for each time as 100% effect, according to the following Eq 1: %CIDALRESPONSE=100*[Avg_C14h-RawData]/[Avg_C14h-Avg_C2] (1)
• ME (Maximum Effect) is the maximum percentage of parasite burden reduction reached by any compound concentration. Compounds that decrease the initial parasite load will show a positive value of ME, whereas compounds that allow the progression of infection will render a negative ME value. […] It is calculated for the MCC50 (t50%_MCC50) and for the maximum concentration (t50%_Cmax). […] The value of this parameter is not either interpolated or extrapolated, and it refers to the first experimental time-course point at which a 50% of effect is reached or exceeded. • tlag defines the time elapsed for one particular concentration to reduce parasite burden between two consecutive points at any moment of the time course. It is calculated for the MCC50 (tlag_MCC50) and for the maximum concentration (tlag_Cmax). The value of this parameter is not either interpolated or extrapolated, and it refers to the first experimental time-course point of a positive slope in the normalised plot (i.e. %Cidal_Response). • Cmin_Tox (Minimal CytoToxic Concentration) is the lowest compound concentration that is reducing the number of host mammalian cells below 50% of initial cell density. Cytotoxic compounds may mislead a bona fide antiparasitic action.

TcCYP51 = conditions: formerly reported; cited from earlier work

SMILES	ME_24h ([1]; figure 5)	ME_48h ([1]; figure 5)	ME_72h ([1]; figure 5)	MCC50 ([1]; RoK curve descriptor)	MCCE ([1]; RoK curve descriptor)	t50%_Cmax [1]	tlag_Cmax [1]	t50pct_Cmax ([1]; figure 5)	tlag_Cmax ([1]; figure 5)	t50%_MCC50 ([1]; at MCC50)	tlag_MCC50 ([1]; at MCC50)	t50pct_MCC50 ([1]; at MCC50, figure 5)	tlag_MCC50 ([1]; at MCC50, figure 5)	MCCE ([1]; figure 5)	MCC50 ([1]; figure 5, in µM)	ME_24h (%) [1]	ME_48h (%) [1]	ME_72h (%) [1]	ME 24h (maximum effect at 24 hours, intracellular amastigotes) [1]	CYP51 pIC50 (TcCYP51)	also measured
COc1ccc(NS(=O)(=O)c2cc(NC(=O)c3ccc([N+](=O)[O-])s3)ccc2OC)cc1 [TCMDC-143163]	71.4836	99.4358	93.6846	0.2 µM	0.2 µM	24.0 h	4.0 h	24	4	48.0 h	24.0 h	48	24	0.2058	0.2058	71.5%	99.4%	93.7%	71.4836%	6	AM/CELL NORM ([1]; Time 4, sheet figure 4 A): 10.6053; AM/CELL NORM ([1]; Time 24, sheet figure 4 A): 69.9764; AM/CELL NORM ([1]; Time 48, sheet figure 4 A): 96.1683; AM/CELL NORM ([1]; Time 72, sheet figure 4 A): 85.8906
CCCN(Cc1ccc(OC)c(OC)c1)Cc1cc(=O)c2c(C)cc(C)cc2[nH]1 [TCMDC-143331]	53.5839	70.4309	85.455	27.8 µM	1.9 µM	24.0 h	4.0 h	24	4	48.0 h	4.0 h	48	4	1.852	27.7778	53.6%	70.4%	85.5%	54.2116%	4.5	ME (maximum effect) in RoK assay (in words) [1]: high values in ME at the different times; tlag (in words) [1]: short tlag; AM/CELL NORM ([1]; Time 4, sheet figure 4 A): 14.9494; AM/CELL NORM ([1]; Time 24, sheet figure 4 A): 52.9561; AM/CELL NORM ([1]; Time 48, sheet figure 4 A): 75.3164; AM/CELL NORM ([1]; Time 72, sheet figure 4 A): 72.8804
CC(=O)Nc1ccc(-c2noc(CC3CCCN(Cc4cccc(F)c4C)C3)n2)cc1 (centres unmarked) [TCMDC-143362]	28.3063	60.2253	68.1396	5.6 µM	1.9 µM	48.0 h	4.0 h	48	4	72.0 h	24.0 h	72	24	1.852	5.556	28.3%	60.2%	68.1%	73.518%	< 4	AM/CELL NORM ([1]; Time 4, figure 4 A): -3.298; AM/CELL NORM ([1]; Time 24, figure 4 A): 28.3063; AM/CELL NORM ([1]; Time 48, figure 4 A): 60.2253; AM/CELL NORM ([1]; Time 72, figure 4 A): 68.1396
CCCc1nc2nc(N)nc(N)c2cc1CC [TCMDC-143606]	41.1896	50.5934	54.3499	25.9 µM	0.2 µM	60.0 h	4.0 h	48	4	48.0 h	4.0 h	48	4	0.2058	25.9259	41.2%	50.6%	54.4%	50.9144%	< 4	MCC and MCCE values (in words) [1]: low MCC and MCCE values; ME (maximum effect) in RoK assay (in words) [1]: high ME value; tlag times [1]: 4 h; AM/CELL NORM ([1]; Time 4, sheet figure 4 A): 30.5298; AM/CELL NORM ([1]; Time 24, sheet figure 4 A): 50.9144; AM/CELL NORM ([1]; Time 48, sheet figure 4 A): 56.204; AM/CELL NORM ([1]; Time 72, sheet figure 4 A): 55.305
